Read-outs that look alike come from different tables or passages of the source.
Experiments:
[1] = Tolerability after oral or intravenous administration; set-up: species or system mouse (Swiss albino); conditions: mouse, in vivo, 7 days observation, read-out: Tolerability, dose
Method: The test was conducted in male Swiss albino mice weighing 22-24 g.
A group of animals (4 animals/dose) which had been kept fasting for 18 hours, were orally administered the compounds ST 557, ST 563, ST 564 and ST 570 dissolved in twice distilled water.
A further group of animals, which had free access to food and water, were administered intravenously the same compounds dissolved in saline it pH 7. All the animals were kept under observation for 7 days.

LD50, intravenous = conditions: mouse, in vivo, 0.9% saline
Method: LD50 was determined according to Carrol S. Weil's method, Biometrics, pages 249-263 (1952) in male Swiss albino mice weighing 22-24 g.
The various compounds dissolved in 0.9% saline were administered intravenously.

splenocytes = assay: "In vitro-ex vivo" effect on the mytogen (PHA, ConA, LPS)-induced splenocyte proliferation in mice immunodepressed with cyclophosphamide; set-up: species or system mouse (B6 D2 F1); conditions: for S.I. (stimulation index): with respect to the immunodepressed controls; for AUC (area under curve): immunodepressed
Method: Assessment of the "in vitro-ex vivo" effect of ST 557, ST 563 ST 564 on the mytogen (PHA, ConA, LPS)-Induced splenocyte proliferation in mice Immunodepressed with cyclotohosphamide
Male B6 D2 F1 mice aged 7-9 weeks (5 mice per group) were used.
The immunosuppressor (cyclophosphamide) was administered i.p. at the dose of 100 mg/kg at day -5. The compounds were administered i.p. (25 mg/kg/day) and per os (100 mg/kg/day) from day -5 to day -1 (spleen excision at day 0).
Splenocyte proliferation was induced by three different mytogens: PHA and ConA active on T-lymphocytes, and LPS active on B-lymphocytes. Each mytogen was tested at three different concentrations (suboptimal, optimal and superoptimal) corresponding to 0.5, 4 and 6 mcg/ml/well for PHA; 0.5, 4 and 8 mcg/ml/well for ConA and 0.5, 150 and 500 mcg/ml/well for LPS.
The experimental procedure is identical to that described in test 4.
The results are expressed as both AUC (see test 4) and S.I. In order to assess the efficacy of the immunosuppressor and the activity of the tested compounds, S.I. has been determined both for the immunodepressed controls (with respect to the normal controls) and for the immunodepressed treated animals (with respect to the immunodepressed controls), respectively. [formula]

[2] = system: peritoneal macrophages of treated mice; target tumor cells; assay: "In vitro-ex vivo" effect on the cytostatic activity of peritoneal macrophages; set-up: species or system mouse (B6 D2 F1); tumor targets human
Method: Assessment of the "in vitro-ex vivo" effect of ST 557, ST 563 and ST 570 on the cytostatic activity of peritoneal macrophages
Male B6 D2 F1 mice aged 7-9 weeks (5 animals per group) were used.
The compounds were administered i.p. (25 mg/kg/day), ST 557 and ST 563 were also administered per os (100 mg/kg/day) from day -5 to day -1 (peritoneal cell harvesting at day 0).
The macrophages and target tumor cell lines were prepared as in test 1 and their concentrations were adjusted to 1×10^6 M/ml and 5×10^4 cell/ml, respectively.
Volumes of tumor cells were added to the macrophage preparations so as to obtain Effector/Target ratios of 10:1, 20:1 and 40:1.
Each sample was pulsed with ^3 H-TdR for 18 hours in order to label the tumor cells, which were then collected on filters and counted in a beta-counter.
The macrophage cytostatic activity is expressed as percentage inhibition of tumor cell replication, by assessing the radioactivity incorporated by the tumor cells in each sample with respect to the maximum radioactivity incorporated by a sample consisting of tumor cells only. [formula]

COc1cc2c(cc1OC)CC(N(CC1CC1)CC1CC1)CC2 (centres unmarked) [ST 557, 2-[(N,N-dicyclopropylmethyl)amino]-6,7-dimethoxytetraline]
MTD at 168 h ([1]; iv): > 4 mg/kg
MTD at 168 h ([1]; po, os, fasting 18 hours): > 20 mg/kg
LD50 (LD50, intravenous): 28.3 mg/kg
S.I. (stimulation index) (splenocytes; ConA, 25 mg/kg/day i.p.): 1.50
S.I. (stimulation index) (splenocytes; ConA, 100 mg/kg/day os): 0.92
AUC (area under curve) (splenocytes; ConA, 25 mg/kg/day i.p.): 763 ± 14 ×10^-3
AUC (area under curve) (splenocytes; ConA, 100 mg/kg/day os): 675 ± 21 ×10^-3
S.I. (stimulation index) (splenocytes; LPS, 25 mg/kg/day i.p.): 5.85
S.I. (stimulation index) (splenocytes; LPS, 100 mg/kg/day os): 0.97
AUC (area under curve) (splenocytes; LPS, 25 mg/kg/day i.p.): 6411 ± 214 ×10^-3
AUC (area under curve) (splenocytes; LPS, 100 mg/kg/day os): 4485 ± 433 ×10^-3
S.I. (stimulation index) (splenocytes; PHA, 25 mg/kg/day i.p.): 1.90
AUC (area under curve) (splenocytes; PHA, 25 mg/kg/day i.p.): 191 ± 10 ×10^-3
% of inhibition of target tumor growth ([2]; E/T 10:1, 100 mg/kg/day os): 24.3 ± 2.2%
% of inhibition of target tumor growth ([2]; E/T 20:1, 25 mg/kg/day i.p.): 45.1 ± 1.1%
% of inhibition of target tumor growth ([2]; E/T 20:1, 100 mg/kg/day os): 38.7 ± 1.6%
% of inhibition of target tumor growth ([2]; E/T 40:1, 25 mg/kg/day i.p.): 68.9 ± 1.4%
% of inhibition of target tumor growth ([2]; E/T 40:1, 100 mg/kg/day os): 62.8 ± 3.1%

COc1cc2c(cc1OC)CC(NCC(O)c1ccc(C)cc1)CC2 (centres unmarked) [ST 563, 2-[(N-2-hydroxy-2-(4-methylphenyl)ethyl)amino]-6,7-dimethoxytetraline]
MTD at 168 h ([1]; iv): > 20 mg/kg
MTD at 168 h ([1]; po, os, fasting 18 hours): > 50 mg/kg
S.I. (stimulation index) (splenocytes; ConA, 25 mg/kg/day i.p.): 1.31
S.I. (stimulation index) (splenocytes; ConA, 100 mg/kg/day os): 0.84
AUC (area under curve) (splenocytes; ConA, 25 mg/kg/day i.p.): 666 ± 16 ×10^-3
AUC (area under curve) (splenocytes; ConA, 100 mg/kg/day os): 619 ± 12 ×10^-3
S.I. (stimulation index) (splenocytes; LPS, 25 mg/kg/day i.p.): 4.02
S.I. (stimulation index) (splenocytes; LPS, 100 mg/kg/day os): 0.41
AUC (area under curve) (splenocytes; LPS, 25 mg/kg/day i.p.): 3715 ± 200 ×10^-3
AUC (area under curve) (splenocytes; LPS, 100 mg/kg/day os): 3501 ± 360 ×10^-3
S.I. (stimulation index) (splenocytes; PHA, 25 mg/kg/day i.p.): 2.17
AUC (area under curve) (splenocytes; PHA, 25 mg/kg/day i.p.): 217 ± 14 ×10^-3
% of inhibition of target tumor growth ([2]; E/T 10:1, 100 mg/kg/day os): 25.0 ± 4.9%
% of inhibition of target tumor growth ([2]; E/T 20:1, 25 mg/kg/day i.p.): 35.0 ± 1.6%
% of inhibition of target tumor growth ([2]; E/T 20:1, 100 mg/kg/day os): 47.3 ± 0.6%
% of inhibition of target tumor growth ([2]; E/T 40:1, 25 mg/kg/day i.p.): 55.7 ± 1.4%
% of inhibition of target tumor growth ([2]; E/T 40:1, 100 mg/kg/day os): 62.8 ± 3.1%

— patent US5962525A, “6,7-disubstituted-2-aminotetralines active as immunomodulators and pharmaceutical compositions containing same” (Sigma-Tau, priority 1990, dated 1999)
